Among the data in PubChem BioAssay (NCI) are TGI values, retold here.

Assay in all cases: NCI anticancer screen, dose series, 48 h
Experiment [1] has as its system A549 NSCLC.
The test system of experiment [2] is ACHN renal.
For experiment [3], the system named is COLO 205 colon.
The subject of experiment [4] is HCT-15 colon.
For experiment [5], the system named is HOP-92 NSCLC.
The subject of experiment [6] is HS 578T breast.
The test system of experiment [7] is MALME-3M melanoma.
The subject of experiment [8] is OVCAR-3 ovarian.
Experiment [9] concerns OVCAR-8 ovarian.
Experiment [10] has as its system SF-295 CNS.
Experiment [11] deals with SF-539 CNS.
Experiment [12] has as its system SW-620 colon.
Experiment [13] relates to T-47D breast.
Experiment [14] relates to TK-10 renal.
In experiment [15] the test system is U251 CNS.
Experiment [16] relates to OVCAR-5 ovarian.

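Five concentrations, 48 hours, 96-well plates. TGI is the concentration that stops growth completely.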 Bounds are passed on as bounds.

`CCOP(=O)(OCC)C(NC(=O)OCC(Cl)(Cl)Cl)n1nnc(C(=O)OC)c1C(=O)OC` (centres undefined): the TGI in experiment [1], in experiment [2], in experiment [3], in experiment [4], in experiment [5] and in experiment [6] was more than 100 µM throughout. Also, the TGI in experiment [7], in [8], in [9], in [10], in experiment [11] and in experiment [12] was more than 100 µM each time. In addition, the TGI in experiment [13], in experiment [14] and in experiment [15] was more than 100 µM throughout.

Turning to `OC1(c2ccccc2)CC2CCC(C1)N2CCc1ccccc1` (centres undefined), the TGI in experiment [1] is more than 100 µM; in experiment [2], more than 100 µM; in [3], 35.7 µM; in experiment [4] it was more than 100 µM; in [5], more than 100 µM; in experiment [6], 80.6 µM. The TGI in [7], in [8], in experiment [16], in [9], in experiment [10] and in experiment [11] was more than 100 µM in each case. The TGI in [12], in [13], in experiment [14] and in experiment [15] was more than 100 µM each time.

With `CCOC(=O)c1nc2cc(N3CCOCC3)c(F)cc2[nH]c1=O`, the TGI in experiment [1], in experiment [2], in [3], in experiment [4], in [5] and in experiment [6] was more than 100 µM in each case. Moreover, the TGI in experiment [7], in [8], in experiment [16], in experiment [9], in experiment [10] and in [11] was more than 100 µM in each case. Moreover, the TGI in experiment [12], in experiment [13], in experiment [14] and in [15] was more than 100 µM each time.

Turning to `CNc1ncnc(Sc2nc(N)nc3nc[nH]c23)c1[N+](=O)[O-]`, the TGI in [1] was more than 49.2 µM; in experiment [2] it was 14.7 µM; in [3], 5.53 µM; in [4], 14 µM; in [5], 16.4 µM; in experiment [6], more than 43.9 µM. The TGI in [7] is 18.9 µM; in [8], 12 µM; in experiment [16] it was more than 77.4 µM; in experiment [9], 18.5 µM; in experiment [10], more than 100 µM; in experiment [11], 28.9 µM. For the same compound, the TGI in experiment [12] is 20.6 µM; in [13], 16.8 µM; in experiment [14], 0.941 µM; in experiment [15], 26.9 µM.

Turning to `COc1ccc(/C=C2\C=Cc3ccccc32)cc1OC`, the TGI in experiment [1] was more than 100 µM; in [2], more than 100 µM; in experiment [3], more than 100 µM; in experiment [4], more than 100 µM; in experiment [5], 64.9 µM; in [6], 89.6 µM. In addition, the TGI in experiment [7], in experiment [8], in experiment [16], in experiment [9], in experiment [10] and in experiment [11] was more than 100 µM throughout. The TGI in experiment [12], in [13], in experiment [14] and in experiment [15] was more than 100 µM each time.

`CCC1(C)C=Cc2c(cc(OC)c3c(=O)c4ccccc4n(C)c23)O1` (centres undefined): the TGI in [1], in [2], in [3], in experiment [4], in experiment [5] and in [6] was more than 10 µM each time. Besides, the TGI in experiment [7], in experiment [8], in experiment [16], in experiment [9], in experiment [10] and in experiment [11] was more than 10 µM throughout. Moreover, the TGI in experiment [12], in experiment [13], in experiment [14] and in [15] was more than 10 µM throughout.

As for `S=c1ssc2c3ssc(=S)c3n(Cc3ccccc3)c12`, the TGI in experiment [1], in experiment [2], in [3], in experiment [4], in [5] and in experiment [6] was more than 100 µM in each case. For the same compound, the TGI was more than 100 µM in experiment [7]; more than 100 µM in [8]; more than 100 µM in [16]; more than 100 µM in [9]; more than 100 µM in experiment [10]; 58.9 µM in [11]. The TGI in experiment [12], in experiment [13], in [14] and in experiment [15] was more than 100 µM throughout.

With `CCOC(=O)C1(C(=O)OCC)C[C@]23OCCC(=O)[C@H]2[C@H]2C(=O)OC(C)(C)O[C@]23C1`, the TGI in experiment [1], in experiment [2], in [3], in experiment [4], in [5] and in [6] was more than 100 µM each time. Further, the TGI in [7], in experiment [8], in experiment [16], in experiment [9], in [10] and in [11] was more than 100 µM in each case. For the same compound, the TGI in [12], in experiment [13], in experiment [14] and in [15] was more than 100 µM each time.

Regarding `CN(C)c1nc(N(C)C)nc(N(C)C)n1`, the TGI in experiment [1], in experiment [2], in [3], in [4], in experiment [5] and in [6] was more than 150 µM in each case. In addition, the TGI in experiment [7] was more than 150 µM; in [8], more than 143 µM; in experiment [16], more than 150 µM; in experiment [9], more than 150 µM; in experiment [10], more than 150 µM; in experiment [11], more than 142 µM. Also, the TGI in experiment [12], in experiment [13], in [14] and in experiment [15] was more than 150 µM in each case.

Turning to `O=C(c1ccccc1)c1ccc(C(c2c(O)c3ccccc3oc2=O)c2c(O)c3ccccc3oc2=O)cc1`, the TGI is more than 82.5 µM in [1]; 48.6 µM in experiment [2]; more than 73 µM in experiment [3]; more than 95.3 µM in experiment [4]; more than 64.1 µM in [5]; 64.5 µM in [6]. The TGI in experiment [7] was 37.6 µM; in experiment [8], more than 56.6 µM; in [16], 51.4 µM; in [9], more than 75.1 µM; in [10] it was 53.3 µM; in experiment [11], more than 100 µM. In addition, the TGI was more than 100 µM in [12], more than 100 µM in [13], 36.7 µM in [14] and more than 78.4 µM in [15].

On to `Brc1cccc(/C=C/CN2CCN(CCOC(c3ccccc3)c3ccccc3)CC2)c1`, for which the TGI in experiment [1] was found to be 31.6 µM; in experiment [2] it was 33.1 µM; in experiment [3], 36.2 µM; in experiment [4] it was 40.1 µM; in experiment [5] it was 17.8 µM; in [6], 52 µM. In addition, the TGI in experiment [7] amounted to 31.5 µM; in experiment [8], 30.2 µM; in experiment [16], 34.7 µM; in experiment [9], 29.7 µM; in [10] it was 32.6 µM; in [11] it was 32.4 µM. Moreover, the TGI in experiment [12] is 45.4 µM; in experiment [13] it was 18.6 µM; in [14] it was 33.9 µM; in experiment [15] it was 27.5 µM.

For the compound `CCOC(=O)c1cc2cc(N(C(C)=O)C(C)=O)ccc2s1`, the TGI is more than 100 µM in experiment [1]; 62.3 µM in [2]; more than 100 µM in [3]; more than 100 µM in [4]; more than 100 µM in [5]; 37.6 µM in [6]. In addition, the TGI in experiment [7] was 46.1 µM; in [8], more than 100 µM; in experiment [16], 73.8 µM; in experiment [9], 93.2 µM; in [10], more than 100 µM; in experiment [11], 92.3 µM. Also, the TGI in experiment [12] was more than 100 µM; in [13], 81.3 µM; in experiment [14], more than 100 µM; in experiment [15], 59.6 µM.

As for `COC(=O)c1ccccc1C1CN=NC12Cc1ccc3ccccc3c1C2=O` (centres undefined), the TGI in experiment [1], in experiment [2], in [3], in experiment [4], in [5] and in experiment [6] was more than 100 µM in each case. Moreover, the TGI in [7], in experiment [8], in experiment [16], in experiment [9], in experiment [10] and in experiment [11] was more than 100 µM in each case. Moreover, the TGI is more than 100 µM in experiment [12], 96.9 µM in experiment [13], more than 100 µM in experiment [14] and more than 100 µM in experiment [15].

Take `COc1cc(NS(C)(=O)=O)ccc1NCc1cnc2ccc3[nH]c(C)ccc3c12`: the TGI in experiment [1], in [2], in experiment [3], in [4], in experiment [5] and in experiment [6] was more than 100 µM in each case. Further, the TGI in experiment [7] is more than 100 µM; in experiment [8], 91.9 µM; in [16] it was more than 100 µM; in experiment [9], more than 100 µM; in experiment [10], more than 100 µM; in experiment [11], more than 100 µM. Moreover, the TGI was more than 100 µM in experiment [12], 75 µM in experiment [13], more than 100 µM in [14] and more than 100 µM in experiment [15].

As for `O=c1[nH]c2ccc(C(F)(F)F)cc2nc1-c1ccccc1`, the TGI in experiment [1], in [2], in experiment [3], in experiment [4], in experiment [5] and in [6] was more than 100 µM throughout. Further, the TGI in [7], in [8], in experiment [16], in [9], in [10] and in experiment [11] was more than 100 µM throughout. The TGI in [12], in [13] and in experiment [14] was more than 100 µM each time.

On to `CCOC(=O)c1c(C)n(Cc2ccccc2)c(=O)c2ccccc2c(=O)c2c(=O)ccc(=O)c1=2`, for which the TGI was more than 100 µM in experiment [1]; 77.1 µM in experiment [2]; more than 100 µM in experiment [3]; more than 100 µM in experiment [4]; 41.5 µM in experiment [5]; more than 100 µM in [6]. Besides, the TGI in experiment [7] is 41.9 µM; in [8], more than 100 µM; in [16] it was more than 100 µM; in [9] it was more than 100 µM; in experiment [10], more than 100 µM; in experiment [11], more than 100 µM. The TGI is more than 100 µM in experiment [12], 86.3 µM in [13], 54 µM in experiment [14] and more than 100 µM in experiment [15].

On to `c1ccc(N=C2c3ccccc3CN2c2ccccc2)cc1`, for which the TGI in experiment [1], in experiment [2], in experiment [3], in [4], in experiment [5] and in [6] was more than 100 µM throughout. For the same compound, the TGI in [7], in experiment [8], in [9], in experiment [10], in experiment [11] and in experiment [12] was more than 100 µM in each case. In addition, the TGI in [13], in experiment [14] and in experiment [15] was more than 100 µM each time.

On to `CC(C(=O)N1C(=O)N(C(=O)C(C)C(O)c2ccccc2)C(c2ccccc2)C1c1ccccc1)C(O)c1ccccc1` (centres undefined), for which the TGI was more than 100 µM in experiment [1]; more than 100 µM in experiment [2]; 28.1 µM in experiment [3]; more than 100 µM in experiment [4]; 40.4 µM in experiment [5]; 95.1 µM in experiment [6]. In addition, the TGI was 32.3 µM in experiment [7]; 31.5 µM in experiment [8]; more than 100 µM in experiment [9]; 10.8 µM in [10]; 22.6 µM in experiment [11]; more than 100 µM in experiment [12]. Moreover, the TGI in [13] was more than 100 µM; in [14] it was more than 100 µM; in experiment [15], 27.8 µM.
